Consider 30 compounds from patent publication US4382939A, “3-[2-(Mono-and dialkylamino)propyl]-1,2,3,4-tetrahydro-5H-[1]benzopyrano[3,4-C]pyridin- 5-ones useful for treating bronchospastic diseases” (Warner Lambert Company, priority 1982, dated 1983).

Structures are written as SMILES. Counter-ions that a name gives are not always drawn.

The test system of the assay is collapse on exposure to an aerosol of methacholine. The assay can be described thus: Anticholinergic test: prolongation of collapse time in conscious guinea pigs exposed to an aerosol of methacholine. The settings on record: guinea pig, 25 mg/kg intraperitoneally; 10 minutes methacholine aerosol; Control 1.9 to 2.0. The assay is classed as in vivo. On the procedure: The compounds of the invention display anticholinergic properties when tested by the following procedure: Conscious guinea pigs, six at a time, are put into a sealed chamber and exposed for 10 minutes to an aerosol of methacholine. Untreated animals or those treated with vehicle will collapse in 1.9±0.1 minutes. Groups of animals are injected intraperitoneally with 25 mg/kg of test compound and exposed in the chamber under the same conditions. Compounds which prolong the collapse time past that of the control animals are considered active.

For `CCCN(C)C(C)CN1CCc2c(c(=O)oc3cc(C)ccc23)C1` (stereo not drawn) [H Me H Me n-Pr, 1,2,3,4-Tetrahydro-8-methyl-3-[2-(methylpropylamino)propyl]-5H-[1]benzopyrano[3,4-c]pyridin-5-one], the “(Minutes Protection)” value is 5.4 min.
To `CCOc1cc2oc(=O)c3c(c2cc1OCC)CCN(CC(C)N(CC)CC)C3.Cl.Cl` (stereo not drawn) [EtO EtO H Et Et, 3-[2-(Diethylamino)propyl]-1,2,3,4-tetrahydro-8,9-diethoxy-5H-[1]benzopyrano[3,4-c]pyridin-5-one dihydrochloride] belongs 10.0 min; to `CCNC(C)CN1CCc2c(c(=O)oc3c(OC)c(OC)ccc23)C1` (stereo not drawn) [H MeO MeO Et H, 3-[2-(Ethylamino)propyl]-1,2,3,4-tetrahydro-7,8-dimethoxy-5H-[1] benzopyrano[3,4-c]pyridin-5-one], 9.1 min; to `CCN(C)C(C)CN1CCc2c(c(=O)oc3c(OC)c(OC)ccc23)C1.Cl.Cl` (stereo not drawn) [H MeO MeO Me Et, 3-[2-(Ethylmethylamino)propyl]-1,2,3,4-tetrahydro-7,8-dimethoxy-5H-[1]benzopyrano[3,4-c]pyridin-5-one dihydrochloride], 5.0 min.
Regarding `CCCCN(CC)C(C)CN1CCc2c(c(=O)oc3cc(OC)c(OC)cc23)C1` (stereo not drawn) [MeO MeO H Et Bu, 3-[2-(Butylethylamino)propyl]-1,2,3,4-tetrahydro-8,9-dimethoxy-5H-[1]benzopyrano[3,4-c]pyridin-5-one], the “(Minutes Protection)” value amounted to 3.7 min.
Then `CCCN(CC)C(C)CN1CCc2c(c(=O)oc3cc(C)ccc23)C1` (stereo not drawn) [H Me H Et n-Pr, 3-[2-(Ethylpropylamino)propyl]-1,2,3,4-tetrahydro-8-methyl-5H-[1]benzopyrano[3,4-c]pyridin-5-one], with 7.6 min.
To `Cc1cc2oc(=O)c3c(c2cc1C)CCN(CC(C)N(C)C)C3` (stereo not drawn) [Me Me H Me Me, 3-[2-(Dimethylamino)propyl]-1,2,3,4-tetrahydro-8,9-dimethyl-5H-[1]benzopyrano[3,4-c]pyridin-5-one] belongs 4.8 min.
To `CCCN(C)C(C)CN1CCc2c(c(=O)oc3cc(OC)c(OC)cc23)C1` (stereo not drawn) [MeO MeO H Me n-Pr, 1,2,3,4-Tetrahydro-8,9-dimethoxy-3-[2-(methylpropylamino)propyl]-5H-[1]benzopyrano[3,4-c]pyridin-5-one] belongs 2.5 min; to `CCCN(CC)C(C)CN1CCc2c(c(=O)oc3cc(OC)c(OC)cc23)C1` (stereo not drawn) [MeO MeO H Et n-Pr, 3-[2-(Ethylpropylamino)propyl]-1,2,3,4-tetrahydro-8,9-dimethoxy-5H-[1]benzopyrano[3,4-c]pyridin-5-one], 3.7 min.
For the compound `CCNC(C)CN1CCc2c(c(=O)oc3cc(C)ccc23)C1` (stereo not drawn) [H Me H Et H, 3-[2-(Ethylamine)propyl]-1,2,3,4-tetrahydro-8-methyl-5H-[1]benzopyrano[3,4-c]pyridin-5-one], the “(Minutes Protection)” value was determined as 10.0 min.
Then `CCN(CC)C(C)CN1CCc2c(c(=O)oc3c(OC)c(OC)ccc23)C1` (stereo not drawn) [H MeO MeO Et Et, 3-[2-(Diethylamino)propyl]-1,2,3,4-tetrahydro-7,8-dimethoxy-5H-[1]benzopyrano[3,4-c]pyridin-5-one], with 7.6 min; and `CCCN(CC)C(C)CN1CCc2c(c(=O)oc3ccccc23)C1` (stereo not drawn) [H H H Et Pr, 3-[2-(Ethylpropylamino)propyl]-1,2,3,4-tetrahydro-5H-[1]benzopyrano[3,4-c]pyridin-5-one], with 6.4 min.
Then `CNC(C)CN1CCc2c(c(=O)oc3cc(C)ccc23)C1` (stereo not drawn) [H Me H Me H, 1,2,3,4-Tetrahydro-8-methyl-3-[2-(methylamine)propyl]-5H-[1]-benzopyrano[3,4-c]pyridin-5-one], with 2.1 min; and `COc1ccc2c3c(c(=O)oc2c1)CN(CC(C)N(C)C)CC3.Cl.Cl` (stereo not drawn) [H MeO H Me Me, 3-[2-(Dimethylamino)propyl]-1,2,3,4-tetrahydro-8-methoxy-5H-[1]benzopyrano[3,4-c]pyridin-5-one dihydrochloride], with 10.0 min.
To `CCCCN(C)C(C)CN1CCc2c(c(=O)oc3cc(OC)ccc23)C1` (stereo not drawn) [H MeO H Me n-Bu] belongs 8.6 min; to `CCCN(CC)C(C)CN1CCc2c(c(=O)oc3cc(OC)ccc23)C1` (stereo not drawn) [H MeO H Et n-Pr, 3-[2-(Ethylpropylamino)propyl]-1,2,3,4-tetrahydro-8-methoxy-5H-[1]benzopyrano[3,4-c]pyridin-5-one], 10.0 min; to `CC(CN1CCc2c(c(=O)oc3cc4c(cc23)OCO4)C1)N(C)C` (stereo not drawn) [OCH2O H Me Me, 3-[2-(Dimethylamino)propyl]-1,2,3,4-tetrahydro-5H-[1,3]benzodioxolo]5',6':5,6]pyrano[3,4-c]pyridin-5-one dihydrochloride], 2.3 min.
As for `CCN(CC)C(C)CN1CCc2c(c(=O)oc3cc(OC)ccc23)C1` (stereo not drawn) [H MeO H Et Et, 3-[2-(Diethylamino)propyl]-1,2,3,4-tetrahydro-8-methoxy-5H-[1]benzopyrano[3,4-c]pyridin-5-one], the “(Minutes Protection)” value is 10.0 min.
`CCCN(C)C(C)CN1CCc2c(c(=O)oc3cc(OC)ccc23)C1` (stereo not drawn) [H MeO H Me n-Pr, 1,2,3,4-Tetrahydro-8-methoxy-3[2-(methylpropylamino)propyl]-5H-[1]benzopyrano[3,4-c]pyridin-5-one]: the “(Minutes Protection)” value amounted to 10.0 min.
Then `CC(CN1CCc2c(c(=O)oc3c2ccc2ccccc23)C1)N(C)C` (stereo not drawn) [H CHCHCHCH Me Me, 2-[2-(Dimethylamino)propyl]-1,2,3,4-tetrahydro-12H-naphtho-[2',1':5,6]pyrano[3,4-c]pyridin-12-one dihydrochlorine], with 5.9 min; and `CCN(C)C(C)CN1CCc2c(c(=O)oc3cc(OC)c(OC)cc23)C1.Cl.Cl` (stereo not drawn) [MeO MeO H Me Et, 3-[2-(Ethylmethylamino)propyl]-1,2,3,4-tetrahydro-8,9-dimethoxy-5H-[1]benzopyrano[3,4-c]pyridin-5-one dihydrochloride], with 6.0 min; and `CCNC(C)CN1CCc2c(c(=O)oc3cc(C)c(Cl)cc23)C1` (stereo not drawn) [Cl Me H Et H, 9-Chloro-3-[2-(ethylamino)propyl]-1,2,3,4-tetrahydro-8-methyl-5H-[1]benzopyrano[3,4-c]pyridin-5-one], with 3.1 min.
Then `COc1ccc2c3c(c(=O)oc2c1OC)CN(CC(C)N(C)C)CC3.Cl.Cl` (stereo not drawn) [H MeO MeO Me Me, 3-[2-(Dimethylamino)propyl]-1,2,3,4-tetrahydro-7,8-dimethoxy-5H-[1]benzopyrano[3,4-c]pyridin-5-one dihydrochloride], with 5.5 min; and `CCN(CC(C)C)C(C)CN1CCc2c(c(=O)oc3cc(OC)c(OC)cc23)C1` (stereo not drawn) [MeO MeO H Et s-Bu, 3-[2-[Ethyl(2-methylpropyl)amino]propyl]-1,2,3,4-tetrahydro-8,9-dimethoxy-5H-[1]benzopyrano[3,4-c]pyridin-5-one], with 5.4 min.
In the case of `CNC(C)CN1CCc2c(c(=O)oc3cc(C)c(NC(C)=O)cc23)C1` (stereo not drawn) [AcNH Me H Me H, N-[1,3,4,5-Tetrahydro-8-methyl-3-[2-(methylamino)propyl]-5-oxo-2H-[1]benzopyrano[3,4-c]pyridin-9-yl]acetamide], the “(Minutes Protection)” value came out at 10.0 min.
Then `CCNC(C)CN1CCc2c(c(=O)oc3cc(OC)ccc23)C1` (stereo not drawn) [H MeO H Et H, 3-[2-(Ethylamino)propyl]-1,2,3,4-tetrahydro-8-methoxy-5H-[1]benzopyrano[3,4-c]pyridin-5-one], with 7.5 min; and `CCN(C)C(C)CN1CCc2c(c(=O)oc3cc(OC)ccc23)C1` (stereo not drawn) [H MeO H Me Et, 3-[2-(Ethylmethylamino)propyl]-1,2,3,4-tetrahydro-8-methoxy-5H-[1]benzopyrano[3,4-c]pyridin-5-one], with 9.1 min; and `CCN(CC)C(C)CN1CCc2c(c(=O)oc3cc(C)c(Cl)cc23)C1` (stereo not drawn) [Cl Me H Et Et, 9-Chloro-3-[2-(diethylamino)propyl]-1,2,3,4-tetrahydro-8-methyl-5H-[1]benzopyrano[3,4-c]pyridin-5-one], with 3.4 min.
Then `CNC(C)CN1CCc2c(c(=O)oc3cc(OC)ccc23)C1` (stereo not drawn) [H MeO H Me H, 1,2,3,4-Tetrahydro-8-methoxy-3-[2-(methylamino)propyl]-5H-[1]benzopyrano[3,4-c]pyridin-5-one], with 8.6 min.
To `CCCCN(C)C(C)CN1CCc2c(c(=O)oc3cc(C)ccc23)C1` (stereo not drawn) [H Me H Me n-Bu, 3-[2-(Butylmethylamino)propyl]-1,2,3,4-tetrahydro-8-methyl-5H-[1]benzopyrano[3,4-c]pyridin-5-one] belongs 7.8 min.
